The text below walks through data of patent US20070173461A1, “Glycoside prodrug of 5-aminosalicylic acid” (Nippon Shinyaku Co., Ltd., priority 2004, published 2007).

Series [1] can be described thus: Measurement of plasma concentration of 5-ASA (HPLC) after administration to rats. It counts as in vivo, rat. Particulars: for Plasma concentration of 5-ASA after oral administration (in words, FIG. 1): rats, p.o., 50 mg/kg as 5-ASA. Here is the method:
To SD male rats at 7 weeks of age, 5-ASA was intravenously administered as a test drug, and the compound [1], the compound [2], the compound [3] or Pentasa ™ was orally administered at a dose of 50 mg/kg as5-ASA. The plasma concentration of 5-ASA was measured by high performance liquid chromatography (HPLC). As for Pentasa (registered trademark), granules obtained by pulverizing Pentasa (registered trademark) tablet were used.

The nature of series [2]: Amount of 5-ASA in cecal, proximal colonic, distal colonic and rectal contents after oral administration. It counts as in vivo, rat. Particulars: rats, p.o., 50 mg/kg as 5-ASA; compared with Pentasa and 5-ASA; FIGS. 2-5. The method, then: To SD male rats at 7 weeks of age, the compound [1], Pentasa ™ and 5-ASA were orally administered at a dose of 50 mg/kg as 5-ASA, and the contents in the cecum, the proximal colon, the distal colon and the rectum were homogenated and centrifuged. Then, the amount of 5-ASA in the respective sites of the large intestine was measured by high performance liquid chromatography (HPLC). As for Pentasa ™, granules obtained by pulverizing Pentasa ™ tablet were used.

Series [3] relates to TNBS-induced colitis. The experiment in a line: Trinitrobenzenesulfonic acid (TNBS)-induced colitis in rats. It counts as in vivo, rat. Particulars: 3 days after TNBS, female SD rats. The method, then: To a female SD rat fasted for 24 hours, an aqueous solution of TNBS/50% ethanol (30 mg/0.25 ml/rat) was administered in the colon at 8 cm from the anus using a probe for oral administration under pentobarbital anesthesia to induce colitis. At 3 days after the administration of TNBS, the colon was excised, and the wet weight of the colon of 8 cm long from the anus was weighed. The degree of colitis onset was scored in accordance with the method of Wallace et al. (Gastroenterology 96, 29-36 (1989)). As the test compounds, Pentasa ™ at doses of 30 mg/kg and 100 mg/kg and compound [1] at doses of 61.8 mg/kg and 205.9 mg/kg (corresponding to 30 mg/kg and 100 mg/kg in terms of 5-ASA) were orally administered twice a day (on the day of TNBS administration, once at 4 hours before TNBS administration). Pentasa ™ was administered as granules obtained by pulversing Pentasa ™ tablet.

Series [4] can be described thus: Concentration of 5-ASA in colonic tissue and rectal tissue after oral administration. It counts as in vivo, rat. Particulars: rats, p.o., 50 mg/kg as 5-ASA; FIGS. 6 and 7. The method, then: Further, the compound [2] and Pentasa ™ were orally administered at a dose of 50 mg/kg as 5-ASA, and the colon and the rectum were homogenated and centrifuged. Then, the concentrations of 5-ASA in the colonic tissue and the rectal tissue were measured by high performance liquid chromatography (HPLC). As for Pentasa ™, granules obtained by pulverizing Pentasa ™ tablet were used.

For series [5] the following is noted: rat, in vivo; cited from earlier work.

Turning to `Nc1ccc(O)c(C(=O)O)c1` [Compound 5-ASA, 5-Aminosalicylic acid], the AUC in series [1] (rat, iv, plasma 5-ASA, SD male rats, i.v., 1 mg/kg, read-out: Area under the curve of concentration (AUC)) was found to be 1420 ng·h/mL.

In the case of `Nc1ccc(O[C@@H]2O[C@H](CO)[C@H](O)[C@H](O)[C@H]2O)c(C(=O)O)c1` [Compound [1], 5-amino-2-(β-D-galactopyranosyloxy)benzoic acid], in series [2], the “Amount of 5-ASA in the respective sites of the large intestine (cecum, proximal colon, distal colon, rectum contents)” value is listed as “highest value”. The Damage score entry in series [3] (61.8 mg/kg (corresponding to 30 mg/kg as 5-ASA) p.o. twice a day) is given as “significantly reduced”. For the same molecule, in series [3] (205.9 mg/kg (corresponding to 100 mg/kg as 5-ASA) p.o. twice a day), the “Increase of the wet weight of the colon” value was “inhibited the increase of the wet weight of the colon significantly”. Also, in series [1], the “Plasma concentration of 5-ASA after oral administration (in words, FIG. 1)” value (from here on “Plasma concentration of 5-ASA”) is reported as “remained low as compared with those of Pentasa”.

As to `Nc1ccc(O[C@H]2O[C@H](CO)[C@H](O)[C@H](O)[C@H]2O)c(C(=O)O)c1` [[2], 5-amino-2-(α-D-galactopyranosyloxy)benzoic acid], the “Concentrations of 5-ASA in the colonic tissue and the rectal tissue” value in series [4] is recorded as “higher as compared with Pentasa”. Further, in series [1], the “Plasma concentration of 5-ASA” value was “remained low as compared with those of Pentasa”.

In the case of `Nc1ccc(O[C@@H]2O[C@H](CO)[C@@H](O)[C@H](O)[C@H]2O)c(C(=O)O)c1` [[3], 5-amino-2-(β-D-glucopyranosyloxy)benzoic acid], the “Plasma concentration of 5-ASA” value in series [1] was “remained low as compared with those of Pentasa”.

Turning to `C[C@@H]1C[C@H]2[C@@H]3CCC4=CC(=O)C=C[C@]4(C)[C@@]3(F)[C@@H](O)C[C@]2(C)[C@@]1(O)C(=O)COC1O[C@H](CO)[C@@H](O)[C@H](O)[C@H]1O` (stereo partly drawn) [glucose derivative of dexamethasone], the “Fraction delivered to the cecum” value in series [5] is reported as 60%.
